Results reported in patent publication US5130320A, “Glycosidase inhibiting 1,3-dideoxy-3-fluoronojirimycin” (Monsanto Company, priority 1991, dated 1992).

How the values were obtained:
Type in all cases: biochemical
[1] = tested on: almond β-glucosidase; experiment: β-Glucosidase inhibition assay, pH 7.4
Procedure: (§1) The glycosidase inhibition activity is determined by modifying an assay procedure described in Evans et al, Phytochemistry, 22, pp. 768-770 (1983). More particularly, yeast α-glucosidase and almond β-glucosidase activities were measured by the Evans et al method which was modified by assaying activities at pH 7.4 in N-2-hydroxyethylpiperazine-N-2-ethane sulfonic acid (HEPES) buffer, measuring in 96 well microtiter plates, and including 10% DMSO in control and test samples.
(§2) The release of p-nitrophenol from the substrate p-nitrophenylglycoside was measured spectrophotometrically in the presence and absence of test compound. Each assay included a known inhibitor of the enzyme as a standard. IC50 values were determined for compounds which inhibited the enzymes more than 50% at a 1 millimolar concentration.
To 100 ul 50 mM HEPES buffer, pH 7.4, in a microtiter plate, 20 ul test compound in DMSO (DMSO alone in control) and 40 ul (0.136 units) β-glucosidase (Sigma) in HEPES buffer were added and pre-incubated at room temperature 15 minutes. 40 ul 1.25 mM p-nitrophenyl-β-D-glucopyranoside in HEPES buffer was added as substrate and the absorbance change at 405 nm was monitored utilizing a Biotek EIA Autoreader. Absorption change was measured at 15 to 25 minutes (reaction is linear for at least 30 minutes). Each sample was tested in triplicate. IC50 values were determined from the linear portion of the log concentration vs percent inhibition curve obtained from a minimum of 3 points. Castanospermine was used as standard inhibitor.

[2] = tested on: almond β-glucosidase; experiment: β-Glucosidase inhibition assay, pH 4.8
Procedure: as §1, §2
To 100 ul 50 mM sodium citrate buffer, pH 4.8, in a microtiter plate, 20 ul test compound in DMSO (DMSO alone in control) and 20 ul (0.017 units) β-glucosidase (Sigma) in citrate buffer were added and pre-incubated at room temperature 15 minutes. 20 ul 2.50 mM p-nitrophenyl-β-D-glucopyranside in citrate buffer was added as substrate and incubated at room temperature minutes (reaction is linear for at least 30 minutes). 50 ul 0.4 M NaOH was added and the absorption change at 405 nm was determined utilizing a Biotek EIA Autoreader. Each sample was tested in triplicate. IC50 values were determined from the linear portion of the log concentration vs percent inhibition curve obtained from a minimum of 3 points. Castanospermine was used as standard inhibitor.

[3] = biological target: T1, yeast α-glucosidase (Saccharomyces cerevisiae, UniProt P53341); experiment: α-Glucosidase inhibition assay, pH 7.4; details: read-out: ALPHA GLUCOSIDASE inhibition; for inhibition at 1000 µM: @ 1 mM; for inhibition at 5000 µM: @ 5 mM
T1 construct: purchased Sigma
Procedure: as §1, §2
To 100 ul 50 mM HEPES buffer, pH 7.4, in a microtiter plate, 20 ul test compound in DMSO (DMSO alone in control)and 40 ul (0.013 units) yeast α-glucosidase (Sigma) in HEPES buffer were added and pre-incubated at room temperature 15 minutes. 40 ul 1.25 mM p-nitrophenyl-α-D-gl-ucopyranoside (Sigma) in HEPES buffer, as substrate was added and the absorbance change at 405 nm was monitored in a Biotek EIA Autoreader. Absorption change was measured at 15 to 25 minutes (reaction was linear for at least 30 minutes). Each sample was tested in triplicate. IC50 values were determined from the linear portion of the log concentration vs percent inhibition curve obtained from a minimum of 3 points. Deoxynojirimycin was used as standard inhibitor.

[4] = biological target: T2, ALPHA MANNOSIDASE (Canavalia ensiformis, UniProt C0HJB3); experiment: Alpha mannosidase inhibition, pH 4.5; details: for inhibition at 1000 µM: @ 1 mM; for inhibition at 5000 µM: @ 5 mM
T2 sequence (C0HJB3 1-981): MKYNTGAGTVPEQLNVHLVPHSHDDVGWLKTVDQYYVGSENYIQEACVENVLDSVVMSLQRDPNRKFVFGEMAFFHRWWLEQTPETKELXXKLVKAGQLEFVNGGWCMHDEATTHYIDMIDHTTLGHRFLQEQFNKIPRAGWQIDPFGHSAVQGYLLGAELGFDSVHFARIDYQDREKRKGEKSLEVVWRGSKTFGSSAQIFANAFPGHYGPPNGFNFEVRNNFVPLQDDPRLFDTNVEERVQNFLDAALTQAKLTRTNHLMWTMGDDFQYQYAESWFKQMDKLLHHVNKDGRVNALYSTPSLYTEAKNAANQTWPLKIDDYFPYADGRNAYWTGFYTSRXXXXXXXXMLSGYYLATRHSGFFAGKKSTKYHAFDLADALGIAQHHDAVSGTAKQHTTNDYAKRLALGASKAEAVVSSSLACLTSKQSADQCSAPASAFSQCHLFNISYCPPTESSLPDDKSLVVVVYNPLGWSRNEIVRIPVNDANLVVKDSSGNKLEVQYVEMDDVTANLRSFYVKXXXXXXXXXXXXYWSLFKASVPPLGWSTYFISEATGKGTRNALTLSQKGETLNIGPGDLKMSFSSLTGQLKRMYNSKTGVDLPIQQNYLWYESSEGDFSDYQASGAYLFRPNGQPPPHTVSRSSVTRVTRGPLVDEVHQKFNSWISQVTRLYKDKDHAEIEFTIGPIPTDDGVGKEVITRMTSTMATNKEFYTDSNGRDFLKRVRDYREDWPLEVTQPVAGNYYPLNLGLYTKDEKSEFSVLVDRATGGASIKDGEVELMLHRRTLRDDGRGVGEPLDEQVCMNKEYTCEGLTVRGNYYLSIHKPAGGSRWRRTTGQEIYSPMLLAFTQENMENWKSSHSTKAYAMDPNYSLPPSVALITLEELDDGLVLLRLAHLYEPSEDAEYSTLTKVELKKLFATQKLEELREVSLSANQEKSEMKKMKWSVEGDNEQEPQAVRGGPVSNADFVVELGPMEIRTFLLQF

[5] = biological target: T2, ALPHA MANNOSIDASE; experiment: Alpha mannosidase inhibition, pH 7.4; details: for inhibition at 1000 µM: @ 1 mM; for inhibition at 5000 µM: @ 5 mM

T1 sequence (P53341 whole entry): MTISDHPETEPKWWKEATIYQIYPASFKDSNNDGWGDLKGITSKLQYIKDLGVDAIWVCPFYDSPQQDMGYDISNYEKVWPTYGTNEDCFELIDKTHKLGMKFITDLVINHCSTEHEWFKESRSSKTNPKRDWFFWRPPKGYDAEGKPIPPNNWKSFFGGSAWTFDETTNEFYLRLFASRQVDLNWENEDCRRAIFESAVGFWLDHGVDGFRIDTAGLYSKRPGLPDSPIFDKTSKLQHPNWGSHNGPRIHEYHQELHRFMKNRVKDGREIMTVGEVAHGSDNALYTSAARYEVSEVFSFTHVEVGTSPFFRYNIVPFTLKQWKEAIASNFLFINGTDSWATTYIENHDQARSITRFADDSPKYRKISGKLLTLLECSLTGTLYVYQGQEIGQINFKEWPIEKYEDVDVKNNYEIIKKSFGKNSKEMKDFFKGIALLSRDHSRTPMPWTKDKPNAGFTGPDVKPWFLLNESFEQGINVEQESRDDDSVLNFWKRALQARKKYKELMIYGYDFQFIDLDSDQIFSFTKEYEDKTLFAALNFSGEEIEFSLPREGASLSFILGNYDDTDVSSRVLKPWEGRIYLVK

OC[C@H]1NC[C@H](O)[C@@H](F)[C@@H]1O [Compound 1, 1,3-dideoxy-3-fluoronojirimycin]
BETA GLUCOSIDASE-pH 7.4 inhibition ([1]; @ 1 mM): 3%
BETA GLUCOSIDASE-pH 7.4 inhibition ([1]; @ 5 mM): 24%
BETA GLUCOSIDASE-pH 4.8 inhibition ([2]; @ 1 mM): 4%
BETA GLUCOSIDASE-pH 4.8 inhibition ([2]; @ 5 mM): 10%
inhibition at 1000 µM [3]: 26%
inhibition at 5000 µM [3]: 63%
inhibition at 1000 µM [4]: 11%
inhibition at 5000 µM [4]: 19%
inhibition at 1000 µM [5]: 10%
inhibition at 5000 µM [5]: 30%

CCCCN1C[C@H](O)[C@@H](F)[C@H](O)[C@H]1CO [Compound 2, N-butyl-1,3-dideoxy-3-fluoronojirimycin]
BETA GLUCOSIDASE-pH 7.4 inhibition ([1]; @ 1 mM): 0%
BETA GLUCOSIDASE-pH 7.4 inhibition ([1]; @ 5 mM): 2%
BETA GLUCOSIDASE-pH 4.8 inhibition ([2]; @ 1 mM): 8%
BETA GLUCOSIDASE-pH 4.8 inhibition ([2]; @ 5 mM): -10%
inhibition at 1000 µM [3]: 11%
inhibition at 5000 µM [3]: 18%
inhibition at 1000 µM [4]: 6%
inhibition at 5000 µM [4]: 5%
inhibition at 1000 µM [5]: 7%
inhibition at 5000 µM [5]: 11%
